Like-named read-outs stand apart in the source and are kept apart here.
Key:
[1] = system: human glycine transporter (L-GLY2 cells)
Protocol: The incubation was conducted for 40 min at 37° C. Each well was washed three times at room temperature with excess Ringer's buffer and then incubated with 50 μl of alkaline phosphatase buffer (100 mM Tris, pH 9.5, 100 mM NaCl, 10 mMMgCl2, 20 μg/ml saponin, 3.2 mg/ml p-nitrophenyl phosphate) for 1-2 hours at 37° C. The phosphatase assay was used as a relative assessment of cell number, and used to normalize the level of [^3 H]glycine associated with each well as described above. The phosphatase reading for each assayed well was plotted versus its corresponding level of [^3 H]glycine-retention.
(§1) L-GLY2 and L-M cells were assayed for the uptake of [^3 H] glycine (0.1 μM) in the presence or absence of competing, unlabelled amino acids or neurotransmitters. Each competing ligand was present in 1000-fold molar excess (100 μM) of the [^3 H] glycine. […] The assays were performed at 37° C. for 40 minutes. Alanine, proline and serine, each at 1 mM, was added to the Ringer's buffer for all assays.
(§2) At each concentration of [^3 H] glycine used, both uptake levels were converted to picomole-equivalents of [^3 H] glycine, then normalized by both length of assay and corresponding protein contents to arrive at the uptake velocity values. The nonspecific uptake velocity was then subtracted from the total uptake velocity to yield the specific uptake velocity. The specific uptake velocities and their corresponding [^3 H] glycine concentrations were analyzed by both Michaelis-Menten and Lineweaver-Burk transformations of the resulting kinetic profiles. For both analyses, data-points were fitted to either linear or logarithmic functions by computerized algorithms.

L-M cells = settings: ligand 100 μM (1000-fold excess), 0.1 μM [3H]glycine, 40 min, 37° C.
Protocol: as §1, §2

[2] = system: GABA transporter (L-GAB1 cells); assay: [3H]GABA uptake by L-GAB1 cells; assay type: cell-based, human; settings: competitor at 100-fold excess relative to [3H]GABA
Protocol: Using concentrations of [^3 H] GABA ranging from 2 to 500 μM, the kinetic profile of GABA uptake was determined for both L-GAB1 and L-M cells. The initial velocity of GABA uptake was measured and plotted against the corresponding [^3 H] GABA concentration for both cell lines. […] The velocity profile for L-GAB1 cells was subtracted by that of L-M cells, and the resulting data used for a double-reciprocal plot of velocity-^1 against GABA concentration-^1. The velocity profile for L-M cells was also transformed into a double-reciprocal plot.
Several known inhibitors of high-affinity GABA uptake were used to examine their efficacies in inhibiting [^3 H] GABA uptake by L-GAB1 cells. […] Each of these agents was used at several concentrations ranging from 1 to 100 μM in assays of [^3 H] GABA uptake by L-GAB1 cells. […] GABA uptake by L-GAB1 cells.
L-GAB1 cells were also analyzed in terms of their ligand-specificity in the high-affinity GABA uptake mechanism.

goldfish retina = settings: tissue, published value, cited from earlier work
monkey retina = settings: tissue, published value, cited from earlier work
frog retina = settings: read-out: Km, frog retina; tissue, published value; cited from earlier work
[3] = system: human brain (post-mortem); settings: membrane preparation, published value, cited from earlier work
C6 glioblastoma = settings: read-out: Km, C6 glioblastoma; membrane preparation, published value; cited from earlier work
frog brain = settings: membrane preparation, published value, cited from earlier work
frog spinal cord = settings: membrane preparation, published value, cited from earlier work
rat brain = settings: membrane preparation, published value, cited from earlier work
rat spinal cord = settings: membrane preparation, published value, cited from earlier work
chicken brain = settings: membrane preparation, published value, cited from earlier work
chicken spinal cord = settings: membrane preparation, published value, cited from earlier work
mouse cerebral cortex = settings: membrane preparation, published value, cited from earlier work
[4] = system: mouse pons-medulla-spinal cord; settings: membrane preparation, published value, cited from earlier work
Y79 retinoblastoma = settings: cell, published value, cited from earlier work

With `NCC(=O)O` [glycine] the “Vmax of glycine uptake, L-GLY2” value ([1]; 50 nM to 5 μM [3H]glycine, 10 min, Lineweaver-Burk) was 10.19±3.32 pmol/min/mg protein, the “Vmax, L-GLY2” value ([1]; Table IV) was 10.19 ± 3.32 pmol/mg/min and the “effect of competing ligand on [3H]glycine uptake, L-GLY2” value ([1]; ligand 100 μM (1000-fold excess), 0.1 μM [3H]glycine, 40 min, 37° C., 1 mM alanine, proline, serine) was “reduced [^3 H] glycine transport into L-GLY2 cells to the same level as that of L-M cells”. For the same compound, the Km ([1]; read-out: Km, L-GLY2, Table IV) was 1500 ± 200 nM, the Km ([1]; read-out: apparent Km of glycine uptake, L-GLY2, 50 nM to 5 μM [3H]glycine, 10 min, Lineweaver-Burk) was 1500 nM and the “effect of competing ligand on [3H]glycine uptake, L-M” value (L-M cells) was “not significantly inhibited”. The “ligand-specificity of [3H]GABA uptake by L-GAB1 cells” value [2] was “not inhibited”, the Km (goldfish retina; read-out: Km, goldfish retina) was 8.08 ± 0.7 µM and the “Vmax, goldfish retina” value (goldfish retina) was 8.71 ± 0.54 pmol/mg/min. The Km (monkey retina; read-out: Km, monkey retina) was 2500 ± 900 nM, the “Vmax, monkey retina” value (monkey retina) was 3.30 ± 1.60 pmol/mg/min and the Km (frog retina) was over 4.7 µM. The “Vmax, human brain (post-mortem)” value [3] was 55 ± 25 pmol/mg/min, the Km ([3]; read-out: Km, human brain (post-mortem)) was 35 ± 19 µM and the Km (C6 glioblastoma) was 100 µM. For the same compound, the “Vmax, frog brain” value (frog brain) was 1.14 ± 0.06 pmol/mg/min, the Km (frog brain; read-out: Km, frog brain) was 24.8 ± 1.4 µM and the “Vmax, frog spinal cord” value (frog spinal cord) was 1.52 ± 0.03 pmol/mg/min. For the same compound, the Km (frog spinal cord; read-out: Km, frog spinal cord) was 29 ± 0.7 µM, the “Vmax, rat brain” value (rat brain) was 0.48 ± 0.07 pmol/mg/min and the Km (rat brain; read-out: Km, rat brain) was 34 ± 1.3 µM. For the same compound, the “Vmax, rat spinal cord” value (rat spinal cord) was 1.43 ± 0.02 pmol/mg/min, the Km (rat spinal cord; read-out: Km, rat spinal cord) was 46.5 ± 1.6 µM and the “Vmax, chicken brain” value (chicken brain) was 0.32 ± 0.01 pmol/mg/min. For the same compound, the Km (chicken brain; read-out: Km, chicken brain) was 37 ± 2 µM, the “Vmax, chicken spinal cord” value (chicken spinal cord) was 0.65 ± 0.02 pmol/mg/min and the Km (chicken spinal cord; read-out: Km, chicken spinal cord) was 41.8 ± 1 µM. For the same compound, the “Vmax, mouse cerebral cortex” value (mouse cerebral cortex) was 340 ± 70 pmol/mg/min, the Km (mouse cerebral cortex; read-out: Km, mouse cerebral cortex) was 15.2 ± 2 µM and the “Vmax, mouse pons-medulla-spinal cord” value [4] was 3100 ± 100 pmol/mg/min. For the same compound, the Km ([4]; read-out: Km, mouse pons-medulla-spinal cord) was 27.6 ± 2.6 µM, the “Vmax, Y79 retinoblastoma” value (Y79 retinoblastoma) was 138.40 ± 12.40 pmol/mg/min and the Km (Y79 retinoblastoma; read-out: Km, Y79 retinoblastoma) was 24.4 ± 2.6 µM.
